Reference: the METLIN SMRT retention time set (Domingo-Almenara et al. 2019)

experiment: gradient 5% acetonitrile 3 min, to 50% in 2 min, to 85% in 15 min, held 3 min, 100 µL/min; conditions: column: Zorbax Extend-C18 2.1 x 50 mm; eluents: water / acetonitrile, 0.1% formic acid
Summary of the method: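 In both positive and negative ionization mode, a quadrupole time-of-flight mass spectrometer coupled to HPLC analyzed pure standards run in mixtures of ~100 molecules. The Zorbax Extend-C18 column (2.1 × 50 mm, 1.8 μm) was operated at 100 μL/min with water and acetonitrile, each containing 0.1% formic acid. The dead volume was 40 μL and the dwell volume 900 μL. Retention time came from adduct peaks that were computationally picked and individually inspected by hand.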

Going from `COc1ccc(CSc2ncn[nH]2)cc1` to `COc1ccc(-c2nnc(CC(=O)NCc3ccccn3)o2)cc1`, the RP-LC retention time falls from 630 s to 588 s.

Compared with `CC(C)C(NC(=O)c1ccco1)c1nc(-c2ccc3c(c2)ncn3C2CCCC2)no1` (configuration not stated), `CCn1nccc1-c1cccc(-c2noc(-c3cccc(NC(=O)c4ccco4)c3)n2)c1` is higher in RP-LC retention time: 741 s for the first, 1080 s for the second.

Compared with `O=C(NCC1CCCO1)c1ccc2ncnc(N3CCCCC3)c2c1` (configuration not stated), `CCn1c(=O)sc2cc(S(=O)(=O)N3CCC(C(=O)NCC4CCCO4)CC3)ccc21` (configuration not stated) is higher in RP-LC retention time: 594 s for the first, 719 s for the second.

`Cc1noc(-c2cc(S(=O)(=O)N3CCC(C)CC3)c(C)s2)c1C` and `Cc1cc(C)cc(Nc2nc(C)cc3nn(CC(=O)N4CCC(C)CC4)c(=O)n23)c1` are the same in RP-LC retention time: 1160 s for the first, 1160 s for the second.

Compared with `Brc1c(Br)c(Br)c2[nH]cnc2c1Br`, `CC1(C(=O)NCc2ccc(Br)cc2)Oc2cccnc2NC1=O` (configuration not stated) is lower in RP-LC retention time: 979 s for the first, 733 s for the second.

Compared with `CCCc1cc(C2CCCN2C(=O)NCc2ccc(F)cc2)no1` (configuration not stated), `O=C(Cc1ccccc1)N1CCCC1c1nc(-c2ccccc2)no1` (configuration not stated) is higher in RP-LC retention time: 873 s for the first, 949 s for the second.

Going from `Cc1cccc(N(C)C(=O)Cn2nc3n(c2=O)CCCC3)c1` to `Cn1cnc2c(C(=O)N3CCCC3)nn(-c3ccc(Cl)cc3)c2c1=O`, the RP-LC retention time rises from 669 s to 758 s.

First: CCc1nnc(-c2ccc(=O)n(CC(=O)NCc3ccc(F)c(Cl)c3)c2)o1
Second: O=C(Nc1nnc(SCc2nnc(-c3ccccc3)o2)s1)c1ccc(Br)o1
The RP-LC retention time of the first is lower: 713 s for the first, 870 s for the second.

Going from `COc1ccc(N2CCN(C(=O)COc3ccc(NC(=O)C4CC4)cn3)CC2)cc1` to `COc1ccc(-c2nnc(N3CCC(C(=O)NCCN4CCOCC4)CC3)o2)cc1`, the RP-LC retention time rises from 673 s to 889 s.

Compared with `COc1ccc(Cl)cc1S(=O)(=O)NCC1(C)CCOCC1`, `Cc1ccc(F)cc1NS(=O)(=O)c1cc(-c2[nH]ncc2C(=O)N2CCOCC2)oc1C` is lower in RP-LC retention time: 874 s for the first, 704 s for the second.

Compared with `CC(C)n1c(=O)oc2cc(-c3noc(-c4cccc5[nH]ccc45)n3)ccc21`, `CC(C)n1c(=O)oc2cc(-c3noc(-c4cc(F)cc(F)c4)n3)ccc21` is higher in RP-LC retention time: 1080 s for the first, 1220 s for the second.

First: Cc1sc2cc(C(=O)NC3CC3)[nH]c2c1CN1CCCCC1
Second: CCCN1C(=O)c2cc(C(=O)N3CCCCCC3)nn2CC1(C)C(=O)NC1CCCC1 (configuration not stated)
The RP-LC retention time of the first is lower: 596 s for the first, 803 s for the second.

Going from `CCn1c(=O)c2cc(C(=O)N3CCC(Cc4ccccc4)CC3)nn2c2ccccc21` to `CCN1C(=O)c2ccccc2S(=O)(=O)c2ccc(C(=O)N3CCN(c4ccccn4)CC3)cc21`, the RP-LC retention time falls from 1150 s to 615 s.

First: COCCCNC(=O)C1(C)CCC(=O)N1CCc1c[nH]c2ccccc12 (configuration not stated)
Second: CCN1CCn2c(nc3cc(C(=O)NCc4ccccc4Br)ccc32)C1=O
The RP-LC retention time of the first is lower: 668 s for the first, 707 s for the second.

Going from `O=C(COc1ccc(Cl)cc1)N1CCc2nc[nH]c2C1` to `CN(C)[C@@H]1CN(C(=O)c2cccc(Cl)c2)C[C@H]1CO`, the RP-LC retention time falls from 606 s to 559 s.

Going from `CC(=O)N1CCc2cc(C(=O)N3CCCC3)ccc21` to `CSc1ccc(CNC(=O)CN2CCc3ccccc3C2C(=O)N2CCCCC2)cc1` (configuration not stated), the RP-LC retention time rises from 869 s to 889 s.

Compared with `O=C(Cc1csc(NC(=O)c2cnccn2)n1)Nc1cccc(C(F)(F)F)c1`, `CCOc1ccc2cccc(NC(=O)c3ccccc3C(F)(F)F)c2n1` is higher in RP-LC retention time: 777 s for the first, 1200 s for the second.

First: Cc1cc(F)ccc1NS(=O)(=O)c1cc(-c2[nH]ncc2C(=O)N2CCCCC2)oc1C
Second: Cc1nc(N2CCCC2)c2c(C(=O)Nc3cccc(Cl)c3)c(C)oc2n1
The RP-LC retention time of the first is lower: 770 s for the first, 852 s for the second.

First: CCCN(C(=O)CC(=O)OCC)c1nc(-c2ccc(C)cc2)cs1
Second: CCN(C(=O)Cc1c(C(=O)O)c(C)cn1CC)c1cc(C)ccc1C
The RP-LC retention time of the first is higher: 1250 s for the first, 892 s for the second.

First: CC(=O)[C@H]1CC[C@H]2[C@@H]3CCC4=CC(=O)C=C[C@]4(C)[C@H]3C(=O)C[C@]12C
Second: COc1cccc(C(C)NC(=O)CN2C(=O)NC3(CCCCC3)C2=O)c1 (configuration not stated)
The RP-LC retention time of the first is higher: 921 s for the first, 748 s for the second.

Going from `COc1ccc2c(c1)OC1(C)CC2C(S(=O)(=O)c2ccc(C)c(C)c2)C(=O)N1C` (configuration not stated) to `Cc1ccc(S(=O)(=O)Nc2cc(-c3cn4ccccc4n3)ccc2C)cc1`, the RP-LC retention time falls from 1030 s to 668 s.

Going from `Cc1cc(C)c(C)c(S(=O)(=O)N2CCCC2c2nc(-c3ccccc3)no2)c1C` (configuration not stated) to `CCCCN(C)S(=O)(=O)c1c(C)nn(-c2ccc(-c3ccccc3)nn2)c1C`, the RP-LC retention time falls from 1330 s to 1160 s.

Compared with `Cc1ccc(-n2nc(N3CCCN(C(=O)c4n[nH]c5c4CCCC5)CC3)ccc2=O)cc1`, `CCN1CCN(C(=O)C2CCN(c3ccc(Sc4ccc(C(C)C)cc4)nn3)CC2)CC1` is lower in RP-LC retention time: 679 s for the first, 659 s for the second.

Going from `C#CCOCC1CCCN(S(=O)(=O)Cc2ccccc2)C1` (configuration not stated) to `CCN(CC)C(=O)C1CCN(S(=O)(=O)Cc2ccccc2)CC1`, the RP-LC retention time falls from 840 s to 759 s.

Going from `O=C(c1c(F)cccc1F)N1CCN(c2nc(CN3CCOCC3)cs2)CC1` to `CCn1c(=O)c(N2CCN(C(=O)Nc3ccc(Br)c(C)c3)CC2)nc2cccnc21`, the RP-LC retention time rises from 608 s to 1060 s.

Compared with `Cc1csc(NC(=O)C2CCN(S(=O)(=O)c3cc(C(=O)N4CCCC4)n(C)c3)CC2)n1`, `CS(=O)(=O)N1CCCC(C(=O)Nc2nccs2)C1` (configuration not stated) is lower in RP-LC retention time: 697 s for the first, 627 s for the second.

First: Cc1cccc(-c2ncccc2CNS(=O)(=O)c2ccccc2Br)c1
Second: CCc1nn2c(CNS(=O)(=O)c3ccccc3CC)c(-c3ccccc3)nc2s1
The RP-LC retention time of the first is lower: 731 s for the first, 1020 s for the second.

Compared with `Cc1cccc(-c2nc3nc(C)cc(N4CCN(c5ccccn5)CC4)n3n2)c1`, `COc1ccccc1N1CCN(c2ccc3cc(S(=O)(=O)N4CCCCC4)ccc3n2)CC1` is higher in RP-LC retention time: 638 s for the first, 987 s for the second.

First: O=C(CCc1nc(CSc2nnc(-c3ccccc3)o2)no1)Nc1nccs1
Second: CCc1nc2cc3c(cc2n1CC(=O)NC(C)c1ccccc1)OCCO3 (configuration not stated)
The RP-LC retention time of the first is higher: 766 s for the first, 651 s for the second.

First: O=S(=O)(Nc1cc(F)cc(F)c1)c1ccc(-c2nnc(C3CCC3)o2)o1
Second: CCc1nc(-c2cc(S(=O)(=O)Nc3ccccc3Br)c(C)s2)cs1
The RP-LC retention time of the first is lower: 930 s for the first, 1130 s for the second.

Compared with `CCOC(=O)c1cnc2c(-c3ccccc3OC)c(C)nn2c1N`, `CCOc1ccc(-c2c(C)nn3c(C)c(C(=O)NCC4CCCN4CC)cnc23)cc1OCC` (configuration not stated) is lower in RP-LC retention time: 879 s for the first, 667 s for the second.

Compared with `CCCn1c(=O)c(C)nc2cc(-c3noc(-c4sccc4C)n3)ccc21`, `Cc1ccc(-c2noc(Cn3c(=O)n(C(C)C)c(=O)c4ccccc43)n2)cc1` is lower in RP-LC retention time: 1240 s for the first, 1150 s for the second.

First: CCOC(=O)c1noc2ncnc(NCCN(CC)c3cccc(C)c3)c12
Second: CCc1nc(-c2c(C)cc(C)nc2NC(=O)c2ccc(C)c(F)c2)no1
The RP-LC retention time of the first is higher: 946 s for the first, 883 s for the second.

Compared with `Cc1csc(-n2nc(C)c(CC(=O)Nc3ccccc3F)c2C)n1`, `COC(=O)C1=CN(c2cccc(C)c2C)c2ccccc2S1(=O)=O` is lower in RP-LC retention time: 938 s for the first, 916 s for the second.

Going from `COc1ccc(NC(=O)CCC2CCN(c3cc(NC4CC4)ncn3)CC2)c(OC)c1` to `Cc1ccnc(N2CCCC(C(=O)NC3CCCCC3)C2)n1` (configuration not stated), the RP-LC retention time rises from 688 s to 709 s.

First: CCOC(=O)C1CCN(c2cc3c(cc2NC(=O)C(C)C)n(C)c(=O)c(=O)n3C)CC1
Second: CN(C)c1ccc(CNC(=O)C2CCN(Cc3cn(C)c4ccc(Cl)cc34)CC2)cc1
The RP-LC retention time of the first is higher: 733 s for the first, 584 s for the second.

Compared with `Cc1ccc(NC(=O)c2ccccc2C(=O)O)cc1Br`, `CCOc1ccc(NC(=O)c2cnc3c(c2)c(=O)n(C)c(=O)n3-c2ccccc2)cc1` is higher in RP-LC retention time: 768 s for the first, 904 s for the second.

Going from `C#CCOCC(O)CN1CCN(c2cc(Cl)ccc2C)CC1` (configuration not stated) to `CC(=O)N1CCN(c2nccc(-n3nc(C)cc3C)n2)CC1`, the RP-LC retention time rises from 577 s to 716 s.

First: Cc1ccc2nc(C)cc(C(=O)NC(C)C)c2c1
Second: CCCCOc1ccc(-c2nc3ccc(Br)cc3c(C(=O)O)c2C)cc1
The RP-LC retention time of the first is lower: 595 s for the first, 963 s for the second.

First: Cc1cccc(OCCn2c(CCO)nc3ccccc32)c1C
Second: Cc1ccc(-n2c(=O)c3c(cc(C)n3C)n(CC(=O)Nc3cccc(Br)c3)c2=O)cc1
The RP-LC retention time of the first is lower: 599 s for the first, 883 s for the second.

Going from `O=C(C1CCC1)N1CCCC(Cc2nncn2CC2CC2)C1` (configuration not stated) to `O=C(Cc1ccsc1)N1CCC([C@@H]2CNC[C@H]2CO)CC1`, the RP-LC retention time falls from 596 s to 568 s.

Going from `CCC(=O)N1CCc2cc(-c3ccc(C(=O)NCCc4ccco4)cc3)ccc21` to `COc1cccc(-c2ccc(=O)n(CCc3nc(-c4ccc(Br)cc4)no3)n2)c1`, the RP-LC retention time rises from 888 s to 1110 s.

First: CC12NC(Cc3ccccc31)c1ccccc12 (configuration not stated)
Second: O=C(c1ccc(-n2cccn2)nn1)N1CCN(C(=O)c2ccco2)CC1
The RP-LC retention time of the first is higher: 670 s for the first, 611 s for the second.

First: COC(=O)c1c(NCc2ccc3c(c2)OCO3)c2cccc(Cl)c2[nH]c1=O
Second: CC(=O)N(Cc1ccc(F)cc1)Cc1ccc2c(c1)CN(C(=O)C(C)C)CCO2
The RP-LC retention time of the first is lower: 788 s for the first, 804 s for the second.

First: Cc1nnc(CNC(=O)C(=O)Nc2ccc(Cl)cn2)o1
Second: CC(=O)c1ccc(NC(=O)N(C)C)cc1
The RP-LC retention time of the first is higher: 628 s for the first, 588 s for the second.

Going from `CCN(CC)CCNC(C(=O)OCCC(C)C)c1ccccc1` (configuration not stated) to `CC1CCCCN1Cc1nc(-c2ccc(N3CCSCC3)nc2)no1` (configuration not stated), the RP-LC retention time falls from 817 s to 642 s.
